Assay results taken from ChEMBL document CHEMBL4483862, “Open-source discovery of chemical leads for next-generation chemoprotective antimalarials” (2018).

Tested on: Plasmodium berghei
Assay: Luciferase/luciferin-expressing antifolate-resistant parasites were used to infect a culture of HepG2 cells that were pre-incubated with compounds. Infected hepatocytes emit light due to the luciferase reaction. Assay results are presented as the percent inhibition of light emission compared to control. […]
Format: functional
Conditions: sporozoite; for IC90: read-out: LUCIFERASE INFECTION ASSAY - IC90

SMILES	IC90	further results
NC(Cc1ccc(F)cc1)c1csc(Nc2ncccn2)n1 (configuration not stated)	4.09 µM	IC50 (HEPG2TOX_HILL_SLOPE 5.82, HEPG2TOX_R_SQUARED 0.311, PBLUC_HILL_SLOPE 16.5, PBLUC_R_SQUARED 0.556, read-out: LUCIFERASE INFECTION ASSAY - IC50): 3.58 µM
Cc1[nH]n(-c2cccc(C(F)(F)F)c2)c(=O)c1-c1cccc(Cl)c1	> 9.36 µM	IC50 (HEPG2TOX_HILL_SLOPE 5.8, HEPG2TOX_R_SQUARED 0.928, PBLUC_HILL_SLOPE 3.11, PBLUC_R_SQUARED 0.843, read-out: LUCIFERASE INFECTION ASSAY - IC50): 6.26 µM
CCOC(=O)c1c(C)[nH]c(/C(C)=N/Nc2nc3ccccc3[nH]2)c1C	> 10 µM	IC50 (HEPG2TOX_HILL_SLOPE 6.05, HEPG2TOX_R_SQUARED 0.279, PBLUC_HILL_SLOPE 4.56, PBLUC_R_SQUARED 0.397, read-out: LUCIFERASE INFECTION ASSAY - IC50): 8.41 µM
Cc1ccc(C)c(-c2nn(C(C)C(=O)Nc3cc(C)on3)c(=O)c3ccccc23)c1 (configuration not stated)	3.83 µM	IC50 (HEPG2TOX_HILL_SLOPE 5.97, HEPG2TOX_R_SQUARED 0.339, PBLUC_HILL_SLOPE 3.63, PBLUC_R_SQUARED 0.528, read-out: LUCIFERASE INFECTION ASSAY - IC50): 2.09 µM
CCOc1c(Cl)cc(C2CC(=O)N(Cc3ccccc3)c3nc4ccccc4n32)cc1OC (configuration not stated)	> 10 µM	IC50 (HEPG2TOX_HILL_SLOPE 5.74, HEPG2TOX_R_SQUARED 0.547, PBLUC_HILL_SLOPE 2.97, PBLUC_R_SQUARED 0.551, read-out: LUCIFERASE INFECTION ASSAY - IC50): 5.06 µM
O=C(CC(=O)Nc1ccc(Cl)cn1)Nc1ccc(Cl)c(Cl)c1	8.05 µM	IC50 (HEPG2TOX_HILL_SLOPE 5.65, HEPG2TOX_R_SQUARED 0.964, PBLUC_HILL_SLOPE 4.27, PBLUC_R_SQUARED 0.168, read-out: LUCIFERASE INFECTION ASSAY - IC50): 4.81 µM
O=C(NNC(=S)Nc1cccc(C(F)(F)F)c1)c1cccn1-c1ccc(F)cc1	> 7.81 µM	IC50 (HEPG2TOX_HILL_SLOPE 5.96, HEPG2TOX_R_SQUARED 0.739, PBLUC_HILL_SLOPE 1.03, PBLUC_R_SQUARED 0.767, read-out: LUCIFERASE INFECTION ASSAY - IC50): > 7.81 µM
CCn1nnc2cc(C(=O)Nc3cccc(Cl)c3N3CCOCC3)ccc21	> 10 µM	IC50 (HEPG2TOX_HILL_SLOPE 5.65, HEPG2TOX_R_SQUARED 0.159, PBLUC_HILL_SLOPE 1.72, PBLUC_R_SQUARED 0.0547, read-out: LUCIFERASE INFECTION ASSAY - IC50): 5.31 µM
COc1cc(OC)cc(-c2cnc3cnc(-c4ccc(CO)cc4)cn23)c1	> 9.13 µM	IC50 (HEPG2TOX_HILL_SLOPE 5.84, HEPG2TOX_R_SQUARED 0.257, PBLUC_HILL_SLOPE 9, PBLUC_R_SQUARED 0.405, read-out: LUCIFERASE INFECTION ASSAY - IC50): 7.72 µM
C(=N\Nc1nc2ccccc2[nH]1)/c1sc(N2CCCCC2)nc1-c1cccs1	> 10 µM	IC50 (HEPG2TOX_HILL_SLOPE 5.76, HEPG2TOX_R_SQUARED 0.476, PBLUC_HILL_SLOPE 1.87, PBLUC_R_SQUARED 0.581, read-out: LUCIFERASE INFECTION ASSAY - IC50): 6.38 µM
COc1ccc(-c2ccnc3n[nH]c(-c4ccc5c(c4)OCO5)c23)cc1OC	4.36 µM	IC50 (HEPG2TOX_HILL_SLOPE 5.74, HEPG2TOX_R_SQUARED 0.837, PBLUC_HILL_SLOPE 9.49, PBLUC_R_SQUARED 0.381, read-out: LUCIFERASE INFECTION ASSAY - IC50): 3.46 µM
CC(C)(C)c1cc(C(=O)Nc2cc(-c3cccs3)nn2-c2ccc(F)cc2)n(Cc2ccccc2)n1	> 6.61 µM	IC50 (HEPG2TOX_HILL_SLOPE 6.06, HEPG2TOX_R_SQUARED 0.212, read-out: LUCIFERASE INFECTION ASSAY - IC50): > 6.61 µM
Cc1sc2ncnc(NC(C)c3ccc(S(C)(=O)=O)cc3)c2c1C (configuration not stated)	> 10 µM	IC50 (HEPG2TOX_HILL_SLOPE 5.66, HEPG2TOX_R_SQUARED 0.483, PBLUC_HILL_SLOPE 1.68, PBLUC_R_SQUARED 0.334, read-out: LUCIFERASE INFECTION ASSAY - IC50): 6.13 µM
CNc1nc2cnc(Nc3cccc(Oc4ccccc4)c3)cc2n1-c1ccccc1	> 10 µM	IC50 (HEPG2TOX_HILL_SLOPE 5.82, HEPG2TOX_R_SQUARED 0.501, PBLUC_HILL_SLOPE 8.19, PBLUC_R_SQUARED 0.453, read-out: LUCIFERASE INFECTION ASSAY - IC50): 8.37 µM
O=C(Nc1ccccc1)Nc1nc2ccc([N+](=O)[O-])cc2s1	7.31 µM	IC50 (HEPG2TOX_HILL_SLOPE 6.06, HEPG2TOX_R_SQUARED 0.204, PBLUC_HILL_SLOPE 4.24, PBLUC_R_SQUARED 0.473, read-out: LUCIFERASE INFECTION ASSAY - IC50): 4.36 µM
Cc1cccc(COc2cccc(C(=O)N3CCC(C(=O)NCc4ccccc4)CC3)c2)c1	> 10 µM	IC50 (HEPG2TOX_HILL_SLOPE 5.74, HEPG2TOX_R_SQUARED 0.455, read-out: LUCIFERASE INFECTION ASSAY - IC50): > 10 µM

SMILES	IC90	further results
COCCc1ccc(-c2csc(NC(=O)Cc3c[nH]c4ccccc34)n2)cc1	> 10 µM	IC50 (HEPG2TOX_HILL_SLOPE 5.8, HEPG2TOX_R_SQUARED 0.844, read-out: LUCIFERASE INFECTION ASSAY - IC50): > 10 µM
CC1CCCN(C(=O)COc2ccc(-c3nc4ccccc4s3)cc2)C1 (configuration not stated)	> 10 µM	IC50 (HEPG2TOX_HILL_SLOPE 6.02, HEPG2TOX_R_SQUARED 0.809, PBLUC_HILL_SLOPE 2.74, PBLUC_R_SQUARED 0.285, read-out: LUCIFERASE INFECTION ASSAY - IC50): 6.51 µM
CCCNC(=O)c1c(NC(=O)c2ccc(F)cc2F)nc2ccc(C)cn12	3.51 µM	IC50 (HEPG2TOX_HILL_SLOPE 5.63, HEPG2TOX_R_SQUARED 0.519, PBLUC_HILL_SLOPE 14, PBLUC_R_SQUARED 0.432, read-out: LUCIFERASE INFECTION ASSAY - IC50): 2.99 µM
c1cncc(-c2nc(NCc3ccnc(N4CCCC4)c3)c3ccccc3n2)c1	> 10 µM	IC50 (HEPG2TOX_HILL_SLOPE 5.98, HEPG2TOX_R_SQUARED 0.222, PBLUC_HILL_SLOPE 14.9, PBLUC_R_SQUARED 0.594, read-out: LUCIFERASE INFECTION ASSAY - IC50): 9.31 µM
CC(C)(C)c1cc2ncc(S(=O)(=O)c3ccc(Cl)cc3)c(N)n2n1	> 9.04 µM	IC50 (HEPG2TOX_HILL_SLOPE 5.77, HEPG2TOX_R_SQUARED 0.0253, read-out: LUCIFERASE INFECTION ASSAY - IC50): > 9.04 µM
Cc1cccn2c(=O)cc(CN3C(=O)NC(C)(c4ccc(F)cc4)C3=O)nc12 (configuration not stated)	> 2 µM	IC50 (HEPG2TOX_HILL_SLOPE 5.95, HEPG2TOX_R_SQUARED 0.496, PBLUC_HILL_SLOPE 2.16, PBLUC_R_SQUARED 0.177, read-out: LUCIFERASE INFECTION ASSAY - IC50): 1.96 µM
COc1ccc(-c2cc(NC(=O)c3ccc(OCc4c(C)noc4C)cc3)ccc2OC)cc1	> 10 µM	IC50 (HEPG2TOX_HILL_SLOPE 5.81, HEPG2TOX_R_SQUARED 0.572, PBLUC_HILL_SLOPE 1.68, PBLUC_R_SQUARED 0.219, read-out: LUCIFERASE INFECTION ASSAY - IC50): > 10 µM
O=C(Nc1ccc2nc(Cc3ccccc3)nn2c1)NC1CCCCC1	3.6 µM	IC50 (HEPG2TOX_HILL_SLOPE 5.83, HEPG2TOX_R_SQUARED 0.978, PBLUC_HILL_SLOPE 13.4, PBLUC_R_SQUARED 0.389, read-out: LUCIFERASE INFECTION ASSAY - IC50): 3.05 µM
O=C1C=C(c2ccccc2)C(=O)N1Nc1ccc(Cl)cc1Cl	> 9.9 µM	IC50 (HEPG2TOX_HILL_SLOPE 5.8, HEPG2TOX_R_SQUARED 0.44, PBLUC_HILL_SLOPE 7.31, PBLUC_R_SQUARED 0.6, read-out: LUCIFERASE INFECTION ASSAY - IC50): 9.05 µM
c1cnc2ccc(-c3cnc4cnc(-c5ccsc5)cn34)cc2c1	> 10 µM	IC50 (HEPG2TOX_HILL_SLOPE 5.76, HEPG2TOX_R_SQUARED 0.0288, PBLUC_HILL_SLOPE 1.24, PBLUC_R_SQUARED 0.576, read-out: LUCIFERASE INFECTION ASSAY - IC50): 3.87 µM
CCOc1cc(/C=C(/C(=O)NCc2ccc(Cl)cc2)c2nc3ccccc3[nH]2)ccc1OC	> 10 µM	IC50 (HEPG2TOX_HILL_SLOPE 5.77, HEPG2TOX_R_SQUARED 0.35, PBLUC_HILL_SLOPE 0.685, PBLUC_R_SQUARED 0.126, read-out: LUCIFERASE INFECTION ASSAY - IC50): > 10 µM
CC(C)(C)c1cc(NC(=O)Cn2cnc3scc(-c4ccccc4)c3c2=O)on1	> 10 µM	IC50 (HEPG2TOX_HILL_SLOPE 6.06, HEPG2TOX_R_SQUARED 0.374, PBLUC_HILL_SLOPE 1.95, PBLUC_R_SQUARED 0.0898, read-out: LUCIFERASE INFECTION ASSAY - IC50): > 10 µM
Cc1cc(NCc2cccc(C(F)(F)F)c2)nc(N)n1	> 10 µM	IC50 (HEPG2TOX_HILL_SLOPE 5.66, HEPG2TOX_R_SQUARED 0.531, PBLUC_HILL_SLOPE 2.77, PBLUC_R_SQUARED 0.624, read-out: LUCIFERASE INFECTION ASSAY - IC50): 5.15 µM
CCOC(=O)c1c(C)[nH]c(C(=O)C(C)N2CCN(c3ccccc3O)CC2)c1C (configuration not stated)	> 10 µM	IC50 (HEPG2TOX_HILL_SLOPE 6.06, HEPG2TOX_R_SQUARED 0.507, PBLUC_HILL_SLOPE 4.15, PBLUC_R_SQUARED 0.577, read-out: LUCIFERASE INFECTION ASSAY - IC50): 7.31 µM
CCN(CC)CCNC(=O)c1c(C)oc2c1C(=O)c1ccccc1C2=O	1.15 µM	IC50 (HEPG2TOX_HILL_SLOPE 5.67, HEPG2TOX_R_SQUARED 0.985, PBLUC_HILL_SLOPE 0.945, PBLUC_R_SQUARED 0.645, read-out: LUCIFERASE INFECTION ASSAY - IC50): 0.112 µM
